The text below walks through data of US6787566B2, “Breakers of advanced glycation endproducts” (City of Hope, priority 1999, dated 2004).

“Also recorded” adds a separate entry of the source.

Type in all cases: biochemical
The target of test [1] is T1, AGE cross-links in tail tendon collagen of diabetic rats (Rattus norvegicus, UniProt P02454+P02466).
T1 construct: collagen was isolated from the tail tendon of diabetic and normal controls; from tissue; host or cells: tail tendon of streptozotocin-diabetic male Sprague-Dawley rats
The experiment in a line: Tendon collagen solubility in weak acid after in vitro treatment. Conditions: for Acid Solubility Test (% increase in solubility): relative to untreated collagen of diabetic rats. As to the method: For this study, diabetes was first induced in male Sprague-Dawley rats (Charles River, Wilmington, Mass.) weighing about 150-175 g by injection of streptozotocin (65 mg/kg, i.p.). […] Tail tendons were dissected free of adhering tissues, washed thoroughly in PBS containing protease inhibitors (1 mM each of EDTA, PMSF, iodoacetamide and benzamidine hydrochloride), patted dry onto a paper towel, rolled into a ball, freeze dried, and stored at −20° C. in sealed containers until used.
Representative samples of tail tendon collagen were pulled from its bulk and were cut approximately 20-25 mm in size. The samples were then placed inside 1.5 mL microfuge tubes and suspended with 1 mL of the desired concentration of the AGE-breaker compound in PBS buffer (pH 7.4) containing 0.02 g/L NaN3. Untreated control tubes include tail tendon collagen and PBS buffer only. The tubes were incubated at 37° C. for 24 hours. After incubation, the tubes were centrifuged at 10,000 rpm and the supernatants discarded. The collagen samples were rinsed with PBS, vortexed thoroughly, centrifuged briefly, and the supernatant discarded. This rinsing was repeated twice. On final rinse, the supernatant was discarded and the tubes inverted for one minute for the samples to air dry. These collagen samples were used immediately in the acid solubility and digestion studies.
For determination of the amount of acid-insoluble collagen in samples treated and untreated with the AGE-breaker compound, 5 mg aliquots of dried tail-tendon collagen from diabetic and non-diabetic rats, all in duplicates, were added to 2 mL of 0.05 M acetic acid and stirred at 4° C. for 24 hours. The mixture was homogenized in a polytron homogenizer and stirred for an additional 24 hours at 4° C. The suspension was then centrifuged at 9000×g for 60 minutes at 4° C. The collagen in the clear supernatant was defined as the acid soluble collagen, and the gel-like pellet as the acid insoluble collagen.

Test [2] addresses T2, cross-linked collagen-AGE-BSA (Rattus norvegicus, UniProt P02454+P02466).
T2 construct: purchased Biocoat (Collaborative Research, Bedford, Mass.) for the collagen-coated plates; Sigma Chemical co. for bovine serum albumin
The test is described as follows: AGE-BSA-collagen ELISA: cleavage of glycated BSA cross-linked to collagen. The settings on record: for AGE-breaking activity (cleavage of cross-linked collagen-AGE-BSA), in words: 0.1-10 mM final concentration, FIGS. 1A and 1C; for Concentration dependence of AGE-BSA-collagen crosslink breaking, in words: FIGS. 1A-C; for Overall AGE-breaking property, in words: overall judgement of the patent's tests. As to the method: In vitro evaluation of the ability of the AGE-breaker compounds to cleave and break cross-linking of glycated BSA (AGE-BSA) (prepared as described (Rahbar et al., 1999)) to the rat-tail-tendon-collagen was by a special ELISA (Vasan et al., 1996). The rat-tail-tendon-collagen coated plates were first blocked first with 300 μL of Superblock blocking buffer (Pierce Chemicals, Rockford, Ill.) for one hour. The blocking solution was removed from the wells by washing the plates twice with PBS-0.05% Tween 20 (PBS-T) using a Dynatech ELISA-plate washer. Cross-linking of various concentrations of AGE-BSA (0, 0.01, 0.05, 0.1, 0.25, 0.50, and 1.0 μg per well) to rat-tail-collagen coated plates was performed without the testing compound, and the plates were incubated for 5 hours at 37° C. After washing the wells three times with PBS-T to remove the unattached AGE-BSA, test concentrations of the compound (50 μL/well) dissolved in PBS were added to wells in triplicate and incubation continued at 37° C. overnight. After washing with PBS-T, the amount of BSA remaining attached to the tail collagen plate was then quantified by addition of rabbit anti-BSA polyclonal antibodies (50 μL/well) for 1 hour at 37° C. The wells were then washed three times with PBS-T and developed with the chromogenic substrate ABTS (100 μL/well). Absorbance was measured at 410 nm in microplate reader (BioRad, Hercules, Calif.).
The percentage breaking activity is calculated by the following formula: 100×[(A410, PBS control)−(A410, AGE-breaker compound)]/[A410, PBS control].
In general terms: An ELISA detects its analyte on a solid surface through an enzyme-linked reagent.

The target of test [3] is T1, AGE cross-links in tail tendon collagen of diabetic rats. The experiment in a line: Total pepsin digestion assay, collagen-linked fluorescence. Conditions: for Pepsin Digestion Assay (% decrease in fluorescence): relative to untreated collagen of diabetic rats. How it is done:
For this study, diabetes was first induced in male Sprague-Dawley rats (Charles River, Wilmington, Mass.) weighing about 150-175 g by injection of streptozotocin (65 mg/kg, i.p.). […] Thirty-two weeks later, the rats are sacrificed and collagen was isolated from the tail tendon of diabetic and normal controls as described by Kochakian et al. (1996). Tail tendons were dissected free of adhering tissues, washed thoroughly in PBS containing protease inhibitors (1 mM each of EDTA, PMSF, iodoacetamide and benzamidine hydrochloride), patted dry onto a paper towel, rolled into a ball, freeze dried, and stored at -20° C. in sealed containers until used. Representative samples of tail tendon collagen were pulled from its bulk and were cut approximately 20-25 mm in size. […] Untreated control tubes include tail tendon collagen and PBS buffer only. The tubes were incubated at 37° C. for 24 hours. After incubation, the tubes were centrifuged at 10,000 rpm and the supernatants discarded. The collagen samples were rinsed with PBS, vortexed thoroughly, centrifuged briefly, and the supernatant discarded. This rinsing was repeated twice. On final rinse, the supernatant was discarded and the tubes inverted for one minute for the samples to air dry. These collagen samples were used immediately in the acid solubility and digestion studies. […] The clear supernatant containing digested collagen was collected and used for collagen-linked fluorescence. […] Fluorescence of the samples was quantified at 365 nm excitation and 418 nm emission. All fluorescence values were corrected for fluorescence of the pepsin in phosphate buffer and expressed as arbitrary units per micromoles of hydroxyproline content of the collagen sample. The hydroxyproline content of each collagen sample was measured following acid hydrolysis, using a microassay method as described ([…] et al., 1997). […] The tubes were autoclaved in a steam sterilizer at 250° F. for 3.5 hours. The samples were taken to dryness using a Savant Speed Vac concentrator with heat, and stored at 4° C. until assayed. The dried samples were rehydrated with 200 μL deionized water, and aliquots were assayed for their hydroxyproline content in a 96-well microtiter plate as described by […] et al. (1997).

For test [4] the target is unchanged. The test is described as follows: Papain digestibility assay, collagen-linked fluorescence. The settings on record: for Papain digestion Assay (% decrease in fluorescence): relative to untreated collagen of diabetic rats. How it is done: For this study, diabetes was first induced in male Sprague-Dawley rats (Charles River, Wilmington, Mass.) weighing about 150-175 g by injection of streptozotocin (65 mg/kg, i.p.). […] Thirty-two weeks later, the rats are sacrificed and collagen was isolated from the tail tendon of diabetic and normal controls as described by Kochakian et al. (1996). Tail tendons were dissected free of adhering tissues, washed thoroughly in PBS containing protease inhibitors (1 mM each of EDTA, PMSF, iodoacetamide and benzamidine hydrochloride), patted dry onto a paper towel, rolled into a ball, freeze dried, and stored at -20° C. in sealed containers until used. Representative samples of tail tendon collagen were pulled from its bulk and were cut approximately 20-25 mm in size. […] Untreated control tubes include tail tendon collagen and PBS buffer only. The tubes were incubated at 37° C. for 24 hours. After incubation, the tubes were centrifuged at 10,000 rpm and the supernatants discarded. The collagen samples were rinsed with PBS, vortexed thoroughly, centrifuged briefly, and the supernatant discarded. This rinsing was repeated twice. On final rinse, the supernatant was discarded and the tubes inverted for one minute for the samples to air dry. These collagen samples were used immediately in the acid solubility and digestion studies. […] Digests were centrifuged at 10,000 rpm for 60 minutes at 4° C., and the supernatant separated from the pellet. […] Aliquots of the supernatant digests were also subjected to acid hydrolysis followed by hydroxyproline measurements. The results were expressed as fluorescence units per micromole of hydroxyproline content of each sample. Percent decrease in fluorescence was calculated as above. […] The tubes were autoclaved in a steam sterilizer at 250° F. for 3.5 hours. The samples were taken to dryness using a Savant Speed Vac concentrator with heat, and stored at 4° C. until assayed. The dried samples were rehydrated with 200 μL deionized water, and aliquots were assayed for their hydroxyproline content in a 96-well microtiter plate as described by […] et al. (1997).

T2 sequence (P02454 152-1207 limits assumed): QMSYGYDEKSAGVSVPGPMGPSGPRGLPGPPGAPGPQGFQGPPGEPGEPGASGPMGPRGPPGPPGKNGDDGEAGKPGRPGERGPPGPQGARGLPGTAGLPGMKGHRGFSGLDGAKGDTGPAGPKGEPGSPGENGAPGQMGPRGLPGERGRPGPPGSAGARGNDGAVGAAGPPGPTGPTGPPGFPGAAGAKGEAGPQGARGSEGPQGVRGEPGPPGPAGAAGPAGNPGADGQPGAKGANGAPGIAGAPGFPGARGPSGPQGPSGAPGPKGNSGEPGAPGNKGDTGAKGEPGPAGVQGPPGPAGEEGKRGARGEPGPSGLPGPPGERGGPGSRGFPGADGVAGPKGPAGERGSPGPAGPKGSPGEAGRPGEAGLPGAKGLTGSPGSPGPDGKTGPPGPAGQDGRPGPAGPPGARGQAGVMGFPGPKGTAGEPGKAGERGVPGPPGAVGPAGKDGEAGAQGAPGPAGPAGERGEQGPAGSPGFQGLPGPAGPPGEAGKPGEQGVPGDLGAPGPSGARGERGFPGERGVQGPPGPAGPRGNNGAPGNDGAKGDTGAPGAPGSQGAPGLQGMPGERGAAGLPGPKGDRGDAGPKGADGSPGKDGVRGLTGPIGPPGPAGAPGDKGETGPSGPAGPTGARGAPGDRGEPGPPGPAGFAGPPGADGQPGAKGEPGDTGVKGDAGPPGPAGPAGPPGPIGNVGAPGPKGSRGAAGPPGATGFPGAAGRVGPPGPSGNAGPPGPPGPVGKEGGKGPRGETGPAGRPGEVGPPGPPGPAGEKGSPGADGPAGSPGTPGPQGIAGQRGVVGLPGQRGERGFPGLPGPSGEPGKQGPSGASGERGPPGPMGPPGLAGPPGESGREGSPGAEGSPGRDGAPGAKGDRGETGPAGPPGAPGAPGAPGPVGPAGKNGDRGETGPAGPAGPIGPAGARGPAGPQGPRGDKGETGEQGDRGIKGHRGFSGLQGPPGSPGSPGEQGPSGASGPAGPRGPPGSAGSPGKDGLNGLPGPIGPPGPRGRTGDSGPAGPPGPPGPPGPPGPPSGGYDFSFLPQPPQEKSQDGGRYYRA
T2 sequence (P02466 86-1125 limits assumed): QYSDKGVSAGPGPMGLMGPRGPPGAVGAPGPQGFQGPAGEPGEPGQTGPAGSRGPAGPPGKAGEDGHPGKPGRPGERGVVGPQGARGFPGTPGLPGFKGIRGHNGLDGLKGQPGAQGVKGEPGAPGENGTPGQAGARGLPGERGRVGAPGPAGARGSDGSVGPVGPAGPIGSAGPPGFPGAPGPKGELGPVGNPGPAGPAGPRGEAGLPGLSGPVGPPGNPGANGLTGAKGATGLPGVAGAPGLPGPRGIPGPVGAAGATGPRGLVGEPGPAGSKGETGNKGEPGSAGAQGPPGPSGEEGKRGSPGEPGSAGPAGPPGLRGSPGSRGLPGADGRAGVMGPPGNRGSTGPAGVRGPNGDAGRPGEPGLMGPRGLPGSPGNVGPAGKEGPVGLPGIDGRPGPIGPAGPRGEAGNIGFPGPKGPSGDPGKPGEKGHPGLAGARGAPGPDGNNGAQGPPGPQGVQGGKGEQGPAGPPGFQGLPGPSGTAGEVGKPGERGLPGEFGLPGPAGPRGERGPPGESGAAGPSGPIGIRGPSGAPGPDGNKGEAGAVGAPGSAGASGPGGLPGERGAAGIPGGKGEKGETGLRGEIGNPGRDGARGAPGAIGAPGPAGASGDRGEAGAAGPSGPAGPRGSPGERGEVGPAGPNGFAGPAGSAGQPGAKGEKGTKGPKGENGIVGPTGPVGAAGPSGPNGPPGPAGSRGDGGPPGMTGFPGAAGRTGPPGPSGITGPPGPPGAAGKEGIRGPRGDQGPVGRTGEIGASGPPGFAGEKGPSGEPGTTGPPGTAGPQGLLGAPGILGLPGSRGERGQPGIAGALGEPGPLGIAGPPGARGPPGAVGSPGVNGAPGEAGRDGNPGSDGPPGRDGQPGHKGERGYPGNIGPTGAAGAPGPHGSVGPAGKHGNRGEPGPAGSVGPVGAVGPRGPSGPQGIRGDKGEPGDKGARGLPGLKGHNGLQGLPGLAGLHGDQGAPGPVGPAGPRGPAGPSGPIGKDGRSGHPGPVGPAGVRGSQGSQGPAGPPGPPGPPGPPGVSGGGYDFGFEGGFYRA
T1 sequence (P02454 152-1207 limits assumed): as the sequence (P02454 152-1207 limits assumed) above
T1 sequence (P02466 86-1125 limits assumed): as the sequence (P02466 86-1125 limits assumed) above

For “4-[(3,5-dichlorophenylureidophenoxyisobutyryl]-4-aminobenzoic acid [LR99]”, the “Acid Solubility Test (% increase in solubility)” value is reported as 1.6% in test [1] (0.1 mM), 7.3% in test [1] (1.0 mM) and 16.0% in test [1] (10 mM). Further, in test [2], the “AGE-breaking activity (cleavage of cross-linked collagen-AGE-BSA), in words” value (“AGE-breaking activity” for short) is listed as “very effective AGE-breakers”. Further, the “Pepsin Digestion Assay (% decrease in fluorescence)” value in test [3] (0.1 mM) was 9.8%; in test [3] (1.0 mM), 16.1%; in test [3] (10 mM), 12.6%. For the same compound, the figures for the “Papain digestion Assay (% decrease in fluorescence)” value in test [4] (0.1 mM), in test [4] (1.0 mM) and in test [4] (10 mM) were 23.5%, 35.9% and 63.6%, respectively.

With `CC(C)(Oc1ccc(NC(=O)Nc2cc(Cl)cc(Cl)c2)cc1)C(=O)NC1(C(=O)O)CCCCC1` [LR23, 4-(3,5-dichlorophenylureido)phenoxyisobutyryl-1-amidocyclohexane-1-carboxylic acid], the “Acid Solubility Test (% increase in solubility)” value is recorded as 18.3% in test [1] (0.1 mM), 19.4% in test [1] (1.0 mM) and 32.7% in test [1] (10 mM). Besides, in test [1] (collagen of diabetic rats, P<0.05 for LR23, FIG. 2B), the “Collagen solubility in weak acid, in words” value is given as “significantly increased solubility”. For the same compound, the “AGE-breaking activity” value in test [2] is “very effective AGE-breakers”. Moreover, the “Concentration dependence of AGE-BSA-collagen crosslink breaking, in words” value (from here on “Concentration dependence”) in test [2] is recorded as “more effective breakers at higher concentrations”. In test [2], the “Overall AGE-breaking property, in words” value is on record as “most effective AGE-breakers”. The “Pepsin Digestion Assay (% decrease in fluorescence)” value in test [3] (0.1 mM) was 7.3%; in test [3] (1.0 mM), 15.5%; in test [3] (10 mM), 18.7%. In addition, the “AGE-linked fluorescence of collagen after pepsin digestion, in words” value in test [3] (collagen of diabetic rats, P<0.05 for LR23, FIG. 3B) is recorded as “reduced the AGE-linked fluorescence”. The “Papain digestion Assay (% decrease in fluorescence)” value is on record as 16.7% in test [4] (0.1 mM), 25.9% in test [4] (1.0 mM) and 47.2% in test [4] (10 mM). Moreover, the “AGE-linked fluorescence of collagen after papain digestion, in words” value in test [4] (collagen of diabetic rats, P<0.05 for LR23, FIG. 4B) was “reduced the AGE-linked fluorescence”.

On to `CN(C)C(=N)NC(=N)N` [Metformin, 1,1-dimethylbiguanide, reference compound], for which, in test [2], the “Concentration dependence” value is “more potent at lower concentrations; also recorded: highly effective at low concentrations” and the “Overall AGE-breaking property, in words” value is on record as “moderate AGE-breaking properties”. Besides, the “Overall AGE-breaking property, in words” value in test [2] (listed as metformin) is given as “moderate AGE-breaker”.

As for “L-bis-[4-(4-chlorobenzamidophenoxyisobutyryl)cystine] [LR20]”, the “Acid Solubility Test (% increase in solubility)” value in test [1] (0.1 mM) is on record as 1.5%; in test [1] (1.0 mM) it was 7.3%; in test [1] (10 mM), 24.0%. Further, the “AGE-breaking activity” value in test [2] is listed as “very effective AGE-breakers”. For the same compound, the “Concentration dependence” value in test [2] is given as “more effective breakers at higher concentrations”. The “Pepsin Digestion Assay (% decrease in fluorescence)” value worked out at 7.1% in test [3] (0.1 mM), 8.9% in test [3] (1.0 mM) and 27.8% in test [3] (10 mM). The “Papain digestion Assay (% decrease in fluorescence)” value in test [4] (0.1 mM) was 18.3%; in test [4] (1.0 mM) it was 18.4%; in test [4] (10 mM), 24.3%.
